Results as given in PMC5974779, “Prediction of Drug-Induced Hepatotoxicity Using Long-Term Stable Primary Hepatic 3D Spheroid Cultures in Chemically Defined Conditions” (Toxicological Sciences, 2018).
Where two headings read alike, the source gives them in different places.

Tests used:
[1] = tested on: clinical DILI in man; details: cited from earlier work; for Guo et al. (2005) / Suzuki et al. (2010): DILI classification score; for Guo et al. (2005): ref Guo et al. (2005); for Clinical DILI classification (Figure 5): structural analogue pairs, 2008 and others; for Suzuki et al. (2010): ref Suzuki et al. (2010)
[2] = cited from earlier work
[3] = ref DrugBank and Prescribers' Digital Reference database; cited from earlier work
[4] = tested on: PHH 2D sandwich cultures; details: cited from earlier work
[5] = tested on: primary human hepatocytes (PHH) 3D spheroids; assay: CD-spheroid hepatotoxicity: ATP viability (CellTiter-Glo) of PHH 3D spheroids after 14 days repeated exposure at 1×, 5×, 20× cmax; details: for Chemically defined spheroids (this study) 20x: PHH spheroids in chemically defined conditions, 20x Cmax
[6] = tested on: Wistar rat primary hepatocyte 3D spheroids; assay: Animal hepatocyte spheroid hepatotoxicity (ATP viability, 14 days), Wistar rat; type: cell-based; details: Wistar rat hepatocyte spheroids, 1×, 5×, 20× human cmax, 14 days
[7] = tested on: primary human hepatocytes (PHH) 3D spheroids
[8] = tested on: PHH spheroids (hanging-drop); details: cited from earlier work
[9] = tested on: C57BL/6 mouse primary hepatocyte 3D spheroids; assay: Animal hepatocyte spheroid hepatotoxicity (ATP viability, 14 days), C57BL/6 (BL6) mouse; type: cell-based; details: C57BL/6 mouse hepatocyte spheroids, 1×, 5×, 20× human cmax, 14 days
[10] = tested on: CD1 mouse primary hepatocyte 3D spheroids; assay: Animal hepatocyte spheroid hepatotoxicity (ATP viability, 14 days), CD1 mouse; type: cell-based; details: CD1 mouse hepatocyte spheroids, 1×, 5×, 20× human cmax, 14 days
[11] = tested on: Gottingen minipig primary hepatocyte 3D spheroids; assay: Animal hepatocyte spheroid hepatotoxicity (ATP viability, 14 days), minipig; type: cell-based; details: minipig hepatocyte spheroids, 1×, 5×, 20× human cmax, 14 days
[12] = tested on: rhesus monkey primary hepatocyte 3D spheroids; assay: Animal hepatocyte spheroid hepatotoxicity (ATP viability, 14 days), rhesus monkey; type: cell-based; details: rhesus monkey hepatocyte spheroids, 1×, 5×, 20× human cmax, 14 days
[13] = FDA drug labeling DILI concern, ref Chen et al., 2011
[14] = FDA drug labeling DILI score, ref Chen et al., 2011
[15] = clinical DILI classification in man (POS/NEG)
[16] = clinical DILI classification used in this study, Supplementary Table 2, ref Chen et al., 2011, Guo et al., 2005, O'Brien et al., 2006, Sakatis et al., 2012, Suzuki et al., 2010, Xu et al., 2008
[17] = clinical DILI classification, Supplementary Table 1, ref Chen et al., 2011, Guo et al., 2005, O'Brien et al., 2006, Sakatis et al., 2012, Suzuki et al., 2010, Xu et al., 2008
[18] = clinical DILI classification, ref Xu et al. (2008)
[19] = reported pattern of liver damage, Supplementary Table 2, ref literature
[20] = therapeutic total cmax, ref PMID
[21] = PHH 2D sandwich cultures, 100x Cmax, ref Xu 2008
[22] = ref Chen et al., 2011, Xu et al.
[23] = PHH hanging-drop spheroids, 100x Cmax, ref Proctor 2017
[24] = clinical hepatotoxicity classification, ref Sakatis et al. (2012)

SMILES | FDA (Severity) [1, 13] | FDA (0-8) [1, 14] | DILI in vivo [1, 15] | Classified as [1, 16] | DILI in vivo [1, 17] | Xu et al. (2008) [1, 18] | Type of DILI [1, 19] | Cmax [2, 20] [nM] | Extent of hepatic metabolism [3] | 2Dsw (Xu 2008) 100x [4, 21] | Chemically defined spheroids (this study) 20x [5] | hepatotoxicity evaluation in spheroids [6] | Chemically defined spheroids (this study) 20x [7] | Guo et al. (2005) [1] | Clinical DILI classification (Figure 5) [1, 22] | Hanging-drop spheroids (Proctor 2017) 100x [8, 23] | hepatotoxicity evaluation in spheroids [9] | hepatotoxicity evaluation in spheroids [10] | hepatotoxicity evaluation in spheroids [11] | hepatotoxicity evaluation in spheroids [12] | also measured
CC(CCc1ccc(O)cc1)NCCc1ccc(O)c(O)c1 (stereo not shown) [Dobutamine] | no DILI concern | 0 | NEG | NEG | NEG | Negative | Non-hepatotoxic | 1340 | Extensive | Negative | Negative | – | – | – | – | – | – | – | – | – | –
CC(CN1c2ccccc2Sc2ccccc21)N(C)C (stereo not shown) [Promethazine] | – | 5 | NEG | NEG | NEG | Negative | Non-hepatotoxic | 60 | Extensive | Negative | – | indicated toxicity | Negative | 3 | – | – | – | – | – | – | –
CC(COc1ccccc1)N(CCCl)Cc1ccccc1 (stereo not shown) [Phenoxybenzamine] | – | – | – | – | – | – | – | – | – | – | Negative | – | – | – | – | – | – | – | – | – | Classified as ([1]; in vivo): NEG; Clinical DILI class (panel heading of Figure 4) ([1]; in vivo): DILI negative; DILI in vivo ([1]; in vivo): NEG; FDA (0-8) ([1]; in vivo): 0; FDA (Severity) ([1]; in vivo): no DILI concern; Sakatis et al. (2012) ([1]; in vivo): non-hepatotixic; Type of DILI ([1]; in vivo): Non-hepatotoxic; Xu et al. (2008) ([1]; in vivo): Negative; Cmax ([2]; human, in vivo): 180 nM; 2Dsw (Xu 2008) 100x [4]: Negative; Hanging-drop spheroids (Proctor 2017) 100x [8]: Negative
COC(c1ccccc1)(c1ccccc1)[C@H](Oc1nc(C)cc(C)n1)C(=O)O [Ambrisentan] | less DILI concern | 7 | NEG | NEG | NEG | – | Non-hepatotoxic | 2270 | Extensive | – | Negative | – | – | – | DILI negative | Negative | – | – | – | – | hepatotoxicity evaluation in CD-spheroids ([5]; PHH spheroids, 1×, 5×, 20× cmax, 14 days repeated exposure, ATP): did not result in a significant reduction of hepatocyte viability
CCc1nn(CCCN2CCN(c3cccc(Cl)c3)CC2)c(=O)n1CCOc1ccccc1 [Nefazodone] | – | 8 | POS | POS | POS | Positive | Hepatocellular injury | 3950 | Extensive | Positive | – | flagged as hepatotoxic | Positive | 3 | DILI positive | Positive | flagged as hepatotoxic | flagged as hepatotoxic | flagged as hepatotoxic | flagged as hepatotoxic | hepatotoxicity evaluation in CD-spheroids ([7]; human, 14 days): severe toxicity at 5× and 20× of the therapeutic exposure levels; Suzuki et al. (2010) [1]: 3; Sakatis et al. (2012) [1, 24]: Hepatotoxic
C1CCC(C(CC2CCCCN2)C2CCCCC2)CC1 (stereo not shown) [Perhexiline] | – | Withdrawn | POS | POS | POS | Positive | Hepatocellular injury | – | Extensive | Positive | – | flagged as hepatotoxic | Positive | – | – | Positive | flagged as hepatotoxic | flagged as hepatotoxic | flagged as hepatotoxic | flagged as hepatotoxic | Suzuki et al. (2010) [1]: 3; Sakatis et al. (2012) [1, 24]: Hepatotoxic
O=C(c1ccc(OCCN2CCCCC2)cc1)c1c(-c2ccc(O)cc2)sc2cc(O)ccc12 [Raloxifene] | – | – | – | – | – | – | – | 1 | – | Negative | – | – | Negative | – | – | – | – | incorrectly flagged as hepatotoxic | – | mild but significant toxicity | Classified as ([1]; in vivo): NEG; Clinical DILI class (panel heading of Figure 4) ([1]; in vivo): DILI negative; DILI in vivo ([1]; in vivo): NEG; FDA (0-8) ([1]; in vivo): 0; Sakatis et al. (2012) ([1]; in vivo): non-hepatotixic; Type of DILI ([1]; in vivo): Non-hepatotoxic; Xu et al. (2008) ([1]; in vivo): Negative
Cc1c(C)c2c(c(C)c1O)CCC(C)(COc1ccc(CC3SC(=O)NC3=O)cc1)O2 (stereo not shown) [Troglitazone] | most DILI concern | Withdrawn | POS | POS | POS | Positive | Hepatocellular injury or Cholestatic injury | 6080 | Extensive | Positive | – | flagged as hepatotoxic | Positive | 3 | DILI positive | Positive | flagged as hepatotoxic | flagged as hepatotoxic | flagged as hepatotoxic | flagged as hepatotoxic | hepatotoxicity evaluation in CD-spheroids [7]: clearly detected; Suzuki et al. (2010) [1]: 3; Sakatis et al. (2012) [1, 24]: Hepatotoxic
Cn1nnc2c(C(N)=O)ncn2c1=O [Temozolomide] | – | 4 | NEG | NEG | NEG | Negative | Non-hepatotoxic | 26800 | Minimal | Negative | Negative | – | – | 1 | – | – | – | – | – | – | –
